In patent publication US4537899A, “Antiviral acylated 1,2,4-triazole derivatives” (BIOGAL Gyogyszergyar, priority 1982, dated 1985):
≈ marks a conversion by molar mass, not a printed value.

Tested on: not listed separately
Test: in vitro
Assay type: cell-based
Settings: human, hela cells
Protocol: The antiviral testing of the compounds was carried out in two steps. First the dose-response curve of cytotoxicity was plotted, then the antiviral activity was assayed in cell cultures containing nontoxic amounts of the compound.
1. The cytotoxicity of the compounds was assayed in HeLa and RK-13 cell cultures by quantitating the protein content of the cells [S. Horvath: Cytotoxicity of drugs and diverse chemical agents to cell cultures, Toxicology, 16, 59 (1980)]. From the data of the dose-response curve the 50 percent cytotoxic concentration of the compounds was determined (CT50), i.e. the concentration inhibiting cell proliferation by 50 percent. Similarly from the data of the dose-response curve the highest concentration of the compounds where cell proliferation compared to the control is not inhibited at all, can be determined, too (0 percent cytotoxic concentration, CT0). To simplify matters, in the Table the logarithm of these values is summarized (i.e. log CT0 =1 representing a concentration of 10 μg/ml).

Point of comparison: `CCSc1n[nH]c(NC(=O)c2ccccc2C)n1` [Example 73, 3-ethylthio-5-(2-methyl-benzoyl-amino)-1H-1,2,4-triazole], CC50 50.1 µg/mL (≈ 191 µM). Against it:
- CSc1n[nH]c(NC(=O)c2ccccc2SC)n1 [Example 70, 3-methylthio-5-(2-methylthio-benzoyl-amino)-1H-1,2,4-triazole] — 1.6-fold higher, 79.4 µg/mL (≈ 283 µM)
- CSc1n[nH]c(NC(=O)c2ccccc2Cl)n1 [Example 63, 3-methylthio-5-(2-chloro-benzoyl-amino)-1H-1,2,4-triazole] — the same, 50.1 µg/mL (≈ 187 µM)
- CSc1n[nH]c(NC(=O)c2ccccc2C)n1 [Example 47, 3-methylthio-5-(2-methyl-benzoyl-amino)-1H-1,2,4-triazole] — 2-fold higher, 100 µg/mL (≈ 403 µM)
- CSc1n[nH]c(NC(=O)c2ccccc2Br)n1 [Example 53, 3-methylthio-5-(2-bromo-benzoyl-amino)-1H-1,2,4-triazole] — 2.5-fold higher, 126 µg/mL (≈ 402 µM)
- CSc1n[nH]c(NC(=O)c2ccccc2[N+](=O)[O-])n1 [Example 61, 3-methylthio-5-(2-nitro-benzoyl-amino)-1H-1,2,4-triazole] — within 1.5-fold, 39.8 µg/mL (≈ 143 µM)

Point of comparison: `CSc1n[nH]c(NC(=O)c2ccccc2[N+](=O)[O-])n1` [Example 61, 3-methylthio-5-(2-nitro-benzoyl-amino)-1H-1,2,4-triazole], MNTC 10 µg/mL. Against it:
- CSc1n[nH]c(NC(=O)c2ccccc2SC)n1 [Example 70, 3-methylthio-5-(2-methylthio-benzoyl-amino)-1H-1,2,4-triazole] — 2-fold higher, 20 µg/mL
- CSc1n[nH]c(NC(=O)c2ccccc2Cl)n1 [Example 63, 3-methylthio-5-(2-chloro-benzoyl-amino)-1H-1,2,4-triazole] — within 1.5-fold, 7.94 µg/mL
- CSc1n[nH]c(NC(=O)c2ccccc2C)n1 [Example 47, 3-methylthio-5-(2-methyl-benzoyl-amino)-1H-1,2,4-triazole] — 4-fold higher, 39.8 µg/mL
- CSc1n[nH]c(NC(=O)c2ccccc2Br)n1 [Example 53, 3-methylthio-5-(2-bromo-benzoyl-amino)-1H-1,2,4-triazole] — 4-fold higher, 39.8 µg/mL
- CCSc1n[nH]c(NC(=O)c2ccccc2C)n1 [Example 73, 3-ethylthio-5-(2-methyl-benzoyl-amino)-1H-1,2,4-triazole] — within 1.5-fold, 7.94 µg/mL

Same assay, conditions: rabbit, rk-13 cells

Point of comparison: `CSc1n[nH]c(NC(=O)c2ccccc2SC)n1` [Example 70, 3-methylthio-5-(2-methylthio-benzoyl-amino)-1H-1,2,4-triazole], CC50 50.1 µg/mL (≈ 179 µM). Against it:
- CSc1n[nH]c(NC(=O)c2ccccc2Cl)n1 [Example 63, 3-methylthio-5-(2-chloro-benzoyl-amino)-1H-1,2,4-triazole] — 1.6-fold higher, 79.4 µg/mL (≈ 296 µM)
- CSc1n[nH]c(NC(=O)c2ccccc2C)n1 [Example 47, 3-methylthio-5-(2-methyl-benzoyl-amino)-1H-1,2,4-triazole] — 1.6-fold higher, 79.4 µg/mL (≈ 320 µM)
- CSc1n[nH]c(NC(=O)c2ccccc2Br)n1 [Example 53, 3-methylthio-5-(2-bromo-benzoyl-amino)-1H-1,2,4-triazole] — 1.6-fold higher, 79.4 µg/mL (≈ 254 µM)
- CSc1n[nH]c(NC(=O)c2ccccc2[N+](=O)[O-])n1 [Example 61, 3-methylthio-5-(2-nitro-benzoyl-amino)-1H-1,2,4-triazole] — within 1.5-fold, 63.1 µg/mL (≈ 226 µM)

Point of comparison: `CSc1n[nH]c(NC(=O)c2ccccc2[N+](=O)[O-])n1` [Example 61, 3-methylthio-5-(2-nitro-benzoyl-amino)-1H-1,2,4-triazole], MNTC 15.8 µg/mL. Against it:
- CSc1n[nH]c(NC(=O)c2ccccc2SC)n1 [Example 70, 3-methylthio-5-(2-methylthio-benzoyl-amino)-1H-1,2,4-triazole] — the same, 15.8 µg/mL
- CSc1n[nH]c(NC(=O)c2ccccc2Cl)n1 [Example 63, 3-methylthio-5-(2-chloro-benzoyl-amino)-1H-1,2,4-triazole] — the same, 15.8 µg/mL
- CSc1n[nH]c(NC(=O)c2ccccc2C)n1 [Example 47, 3-methylthio-5-(2-methyl-benzoyl-amino)-1H-1,2,4-triazole] — within 1.5-fold, 12.6 µg/mL
- CSc1n[nH]c(NC(=O)c2ccccc2Br)n1 [Example 53, 3-methylthio-5-(2-bromo-benzoyl-amino)-1H-1,2,4-triazole] — 1.6-fold higher, 25.1 µg/mL

Tested on: Rubeola virus
Test: Antiviral effect against Rubeola virus at concentrations of CT0 (reduction of TCID50 virus titer)
Assay type: cell-based, Rubeola virus (strain Judith)
Settings: RK-13 cell cultures, log TCID50 difference of control and test compound

For `CSc1n[nH]c(NC(=O)c2ccccc2SC)n1` [Example 70, 3-methylthio-5-(2-methylthio-benzoyl-amino)-1H-1,2,4-triazole], the “Δlog TCID50” value was no less than 5.3.
In the case of `CSc1n[nH]c(NC(=O)c2ccccc2Cl)n1` [Example 63, 3-methylthio-5-(2-chloro-benzoyl-amino)-1H-1,2,4-triazole], the “Δlog TCID50” value was no less than 5.3.
For `CSc1n[nH]c(NC(=O)c2ccccc2C)n1` [Example 47, 3-methylthio-5-(2-methyl-benzoyl-amino)-1H-1,2,4-triazole], the “Δlog TCID50” value was no less than 6.8.
For `CSc1n[nH]c(NC(=O)c2ccccc2Br)n1` [Example 53, 3-methylthio-5-(2-bromo-benzoyl-amino)-1H-1,2,4-triazole], the “Δlog TCID50” value was no less than 6.8.
In the case of `CCSc1n[nH]c(NC(=O)c2ccccc2C)n1` [Example 73, 3-ethylthio-5-(2-methyl-benzoyl-amino)-1H-1,2,4-triazole], the “Δlog TCID50” value was no less than 6.0.

With `CSc1n[nH]c(NC(=O)c2ccccc2[N+](=O)[O-])n1` [Example 61, 3-methylthio-5-(2-nitro-benzoyl-amino)-1H-1,2,4-triazole] the “Δlog TCID50” value was 3.0.

Tested on: not listed separately
Test: Oral toxicity (LD50) in rats
Settings: rat, in vivo

Molecule `CSc1n[nH]c(NC(=O)c2ccccc2C)n1` [Example 47, 3-methylthio-5-(2-methyl-benzoyl-amino)-1H-1,2,4-triazole] has an LD50 of 3200 mg/kg.
